Results reported in patent US20050234046A1 (Kalypsys, Inc., priority 2004, published 2005).
pEC50: −log10 of the molar value.

Assays:
Test in all cases: Transient transfection (transactivation) assay in CV-1 cells, GAL4-PPAR chimera, luciferase reporter
Type in all cases: cell-based
[1] = target: T1, PPAR delta (Homo sapiens, UniProt Q03181)
T1 construct: expressed in transfected cells; host or cells: CV-1 cells
T1 sequence (Q03181 211-439 limits assumed): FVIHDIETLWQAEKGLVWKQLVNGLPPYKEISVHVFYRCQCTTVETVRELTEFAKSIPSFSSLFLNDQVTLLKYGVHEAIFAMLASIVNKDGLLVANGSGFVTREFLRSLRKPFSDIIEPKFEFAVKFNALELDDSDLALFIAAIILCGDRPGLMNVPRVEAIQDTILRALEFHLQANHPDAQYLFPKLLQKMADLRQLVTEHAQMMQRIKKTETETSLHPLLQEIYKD

[2] = target: T2, PPAR gamma (Homo sapiens, UniProt P37231)
T2 construct: expressed in transfected cells; host or cells: CV-1 cells
T2 sequence (P37231 238-503 limits assumed): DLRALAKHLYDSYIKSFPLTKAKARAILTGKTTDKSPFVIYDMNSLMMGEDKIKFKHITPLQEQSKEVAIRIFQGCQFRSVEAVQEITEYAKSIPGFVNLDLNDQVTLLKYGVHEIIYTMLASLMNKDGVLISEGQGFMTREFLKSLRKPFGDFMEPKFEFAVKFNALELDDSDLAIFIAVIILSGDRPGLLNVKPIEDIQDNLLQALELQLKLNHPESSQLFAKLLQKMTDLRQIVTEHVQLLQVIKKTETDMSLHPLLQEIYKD

[3] = target: T3, PPAR alpha (Homo sapiens, UniProt Q07869)
T3 construct: expressed in transfected cells; host or cells: CV-1 cells
T3 sequence (Q07869 239-466 limits assumed): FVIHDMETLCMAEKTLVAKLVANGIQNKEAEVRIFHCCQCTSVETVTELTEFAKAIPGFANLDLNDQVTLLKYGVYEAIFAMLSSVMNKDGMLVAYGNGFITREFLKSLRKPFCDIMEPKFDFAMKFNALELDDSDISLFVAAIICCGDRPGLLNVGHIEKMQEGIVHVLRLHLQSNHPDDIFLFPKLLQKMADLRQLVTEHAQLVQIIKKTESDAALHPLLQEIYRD
How it was run: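 EC50 and efficacy come from a luciferase read-out after 20-24 hours of compound exposure (vehicle 1% DMSO) in transiently transfected CV-1 cells. These cells express a GAL4-PPAR ligand-binding-domain chimera plus a reporter with four or five GAL4 binding sites, and are kept in phenol-red free DME with 5% delipidated calf serum.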

Structure (SMILES)	pEC50 [1]	pEC50 [2]	pEC50 [3]
N#Cc1ccc(N2CCN(S(=O)(=O)c3cccc(CC(=O)O)c3)CC2)cc1 [Example 122, {3-[4-(4-Cyano-phenyl)-piperazine-1-sulfonyl]-phenyl}-acetic acid]	4.00 to 5.30	< 4.00	< 4.00
O=C(O)Cc1cccc(S(=O)(=O)N2CCN(Cc3ccc(F)cc3)CC2)c1 [Example 123, {3-[4-(4-Fluoro-benzyl)-piperazine-1-sulfonyl]-phenyl}-acetic acid]	4.00 to 5.30	4.00 to 5.30	< 4.00
COc1ccc(N2CCN(S(=O)(=O)c3cccc(CC(=O)O)c3)CC2)cc1 [Example 124, {3-[4-(4-Methoxy-phenyl)-piperazine-1-sulfonyl]-phenyl}-acetic acid]	4.00 to 5.30	4.00 to 5.30	< 4.00
O=C(O)Cc1cccc(S(=O)(=O)N2CCN(c3cccc(Br)c3)CC2)c1 [Example 125, {3-[4-(3-Bromo-phenyl)-piperazine-1-sulfonyl]-phenyl}-acetic acid]	4.00 to 5.30	4.00 to 5.30	4.00 to 5.30
CC(C)(C)c1ccc(N2CCN(S(=O)(=O)c3cccc(CC(=O)O)c3)CC2)cc1 [Example 126, {3-[4-(4-tert-butyl-phenyl)-piperazine-1-sulfonyl]-phenyl}-acetic acid]	4.00 to 5.30	> 5.30	4.00 to 5.30
COc1ccc(N2CCN(S(=O)(=O)c3cccc(CC(=O)O)c3)CC2)cc1OC [Example 127, {3-[4-(3,4-Dimethoxy-phenyl)-piperazine-1-sulfonyl]-phenyl}-acetic acid]	< 4.00	< 4.00	< 4.00
O=C(O)Cc1cccc(S(=O)(=O)N2CCN(c3ccc(C(F)(F)F)cc3[N+](=O)[O-])CC2)c1 [Example 128, {3-[4-(2-Nitro-4-trifluoromethyl-phenyl)-piperazine-1-sulfonyl]-phenyl}-acetic acid]	4.00 to 5.30	4.00 to 5.30	4.00 to 5.30
COc1ccccc1N1CCN(S(=O)(=O)c2cccc(CC(=O)O)c2)CC1 [Example 129, {3-[4-(2-Methoxy-phenyl)-piperazine-1-sulfonyl]-phenyl}-acetic acid]	< 4.00	< 4.00	< 4.00
O=C(O)Cc1cccc(S(=O)(=O)N2CCN(C3CCCCC3)CC2)c1 [Example 130, [3-(4-Cyclohexyl-piperazine-1-sulfonyl)-phenyl]-acetic acid]	< 4.00	4.00 to 5.30	< 4.00
Cc1ccc(C)c(N2CCN(S(=O)(=O)c3cccc(CC(=O)O)c3)CC2)c1 [Example 131, {3-[4-(2,5-Dimethyl-phenyl)-piperazine-1-sulfonyl]-phenyl}-acetic acid]	4.00 to 5.30	4.00 to 5.30	< 4.00
O=C(O)Cc1cccc(S(=O)(=O)N2CCN(CC3CCCCC3)CC2)c1 [Example 132, [3-(4-Cyclohexylmethyl-piperazine-1-sulfonyl)-phenyl]-acetic acid]	< 4.00	4.00 to 5.30	< 4.00
N#Cc1ccccc1N1CCN(S(=O)(=O)c2cccc(CC(=O)O)c2)CC1 [Example 133, {3-[4-(2-Cyano-phenyl)-piperazine-1-sulfonyl]-phenyl}-acetic acid]	< 4.00	< 4.00	< 4.00
O=C(O)Cc1cccc(S(=O)(=O)N2CCN(C(c3ccccc3)c3ccc(Cl)cc3)CC2)c1 (stereo not drawn) [Example 134, (3-{4-[(4-Chloro-phenyl)-phenyl-methyl]-piperazine-1-sulfonyl}-phenyl)-acetic, acid]	< 4.00	4.00 to 5.30	< 4.00
O=C(O)Cc1cccc(S(=O)(=O)N2CCN(c3ccc([N+](=O)[O-])cc3)CC2)c1 [Example 135, {3-[4-(4-Nitro-phenyl)-piperazine-1-sulfonyl]-phenyl}-acetic acid]	4.00 to 5.30	< 4.00	< 4.00
O=C(O)Cc1cccc(S(=O)(=O)N2CCN(C(=O)c3ccco3)CC2)c1 [Example 136, {3-[4-(Furan-2-carbonyl)-piperazine-1-sulfonyl]-phenyl}-acetic acid]	< 4.00	< 4.00	< 4.00
COc1cccc(N2CCN(S(=O)(=O)c3cccc(CC(=O)O)c3)CC2)c1 [Example 137, {3-[4-(3-Methoxy-phenyl)-piperazine-1-sulfonyl]-phenyl}-acetic acid]	< 4.00	< 4.00	< 4.00
O=C(O)Cc1cccc(S(=O)(=O)N2CCN(C(c3ccc(F)cc3)c3ccc(F)cc3)CC2)c1 [Example 138, (3-{4-[Bis-(4-fluoro-phenyl)-methyl]-piperazine-1-sulfonyl}-phenyl)-acetic acid]	< 4.00	4.00 to 5.30	< 4.00
O=C(O)Cc1cccc(S(=O)(=O)N2CCN(c3cccc(Cl)c3)CC2)c1 [Example 139, {3-[4-(3-Chloro-phenyl)-piperazine-1-sulfonyl]-phenyl}-acetic acid]	4.00 to 5.30	4.00 to 5.30	< 4.00
O=C(O)Cc1cccc(S(=O)(=O)N2CCN(c3ccccc3Cl)CC2)c1 [Example 140, {3-[4-(2-Chloro-phenyl)-piperazine-1-sulfonyl]-phenyl}-acetic acid]	< 4.00	< 4.00	< 4.00
O=C(O)Cc1cccc(S(=O)(=O)N2CCN(c3ccccc3F)CC2)c1 [Example 141, {3-[4-(2-Fluoro-phenyl)-piperazine-1-sulfonyl]-phenyl}-acetic acid]	4.00 to 5.30	< 4.00	< 4.00
CCOc1ccccc1N1CCN(S(=O)(=O)c2cccc(CC(=O)O)c2)CC1 [Example 142, {3-[4-(2-Ethoxy-phenyl)-piperazine-1-sulfonyl]-phenyl}-acetic acid]	< 4.00	< 4.00	< 4.00
O=C(O)Cc1cccc(S(=O)(=O)N2CCN(C/C=C/c3ccccc3)CC2)c1 [Example 143, {3-[4-(3-Phenyl-allyl)-piperazine-1-sulfonyl]-phenyl}-acetic acid]	4.00 to 5.30	< 4.00	4.00 to 5.30
O=C(O)Cc1cccc(S(=O)(=O)N2CCN(c3ccc(F)cc3)CC2)c1 [Example 144, {3-[4-(4-Fluoro-phenyl)-piperazine-1-sulfonyl]-phenyl}-acetic acid]	4.00 to 5.30	4.00 to 5.30	< 4.00
O=C(O)Cc1cccc(S(=O)(=O)N2CCN(c3ccccc3)CC2)c1 [Example 145, [3-(4-Phenyl-piperazine-1-sulfonyl)-phenyl]-acetic acid]	4.00 to 5.30	< 4.00	< 4.00
O=C(O)Cc1cccc(S(=O)(=O)N2CCN(C(c3ccccc3)c3ccccc3)CC2)c1 [Example 146, [3-(4-Benzhydryl-piperazine-1-sulfonyl)-phenyl]-acetic acid]	< 4.00	4.00 to 5.30	< 4.00
Cc1ccc(CC(=O)O)cc1S(=O)(=O)N1CCN(c2ccc(Cl)cc2)CC1 [Example 147, {3-[4-(4-Chloro-phenyl)-piperazine-1-sulfonyl]-4-methyl-phenyl}-acetic acid]	> 5.30	4.00 to 5.30	< 4.00
